Reference: patent US20050118290A1, “Compositions and method for treatment of steroid/nuclear receptor-mediated diseases” (University of Singapore, priority 2003, published 2005)

Biological target: T1, Glucocorticoid Receptor (Homo sapiens, UniProt P04150)
T1 construct: expressed in transfected cells
T1 sequence (P04150 1-777): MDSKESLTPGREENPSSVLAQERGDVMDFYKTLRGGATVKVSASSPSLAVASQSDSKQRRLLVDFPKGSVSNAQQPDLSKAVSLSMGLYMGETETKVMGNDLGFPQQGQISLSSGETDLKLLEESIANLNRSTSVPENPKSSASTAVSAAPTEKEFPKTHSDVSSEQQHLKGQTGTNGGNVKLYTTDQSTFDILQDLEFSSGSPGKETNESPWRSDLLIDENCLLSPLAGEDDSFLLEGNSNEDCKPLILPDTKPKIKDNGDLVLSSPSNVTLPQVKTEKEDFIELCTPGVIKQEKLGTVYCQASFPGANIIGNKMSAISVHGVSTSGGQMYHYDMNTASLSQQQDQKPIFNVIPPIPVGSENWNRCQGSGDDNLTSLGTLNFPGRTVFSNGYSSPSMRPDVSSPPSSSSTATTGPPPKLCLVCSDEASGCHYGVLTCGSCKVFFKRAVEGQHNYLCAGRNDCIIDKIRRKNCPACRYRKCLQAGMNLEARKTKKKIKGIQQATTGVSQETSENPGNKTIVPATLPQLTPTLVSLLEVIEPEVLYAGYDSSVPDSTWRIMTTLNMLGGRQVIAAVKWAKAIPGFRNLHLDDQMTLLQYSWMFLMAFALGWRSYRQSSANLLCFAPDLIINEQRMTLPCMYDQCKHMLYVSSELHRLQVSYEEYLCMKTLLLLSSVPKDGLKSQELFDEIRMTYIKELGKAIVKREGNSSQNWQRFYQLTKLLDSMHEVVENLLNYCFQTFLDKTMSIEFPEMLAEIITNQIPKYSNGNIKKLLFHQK
Assay: GR (ARE)2-Luc luciferase reporter gene assay
Assay type: cell-based
Details: HQ extract 0 ×10^−6 g/mL (hormone only)
Description: The capacity of HQ extract to activate other steroid receptors, namely AR, PR, GR, ERα and ERβ was examined. […] The (ARE)2-Luc plasmid consist of two repeats of Androgen Response Element (ARE) cloned upstream of the Luciferase Reporter gene in a pGL3-Basic vector (Promega).
AR, PR, GR and ERα and […] were determined by comparing luciferase activity in test cells with control cells exposed to vehicle (i.e., ethanol or methanol) only, analogous to the determination of PPAR activity as described in the previous examples.

Compound: C[C@]12CCC(=O)C=C1CC[C@@H]1[C@@H]2[C@@H](O)C[C@@]2(C)[C@H]1CC[C@]2(O)C(=O)CO [Hydrocortisone, hydrocortisone]
- Luciferase activity (Fold ± SE) Glucocorticoid Receptor/Hydrocortisone (1 × 10^−9 M): 11014 ± 285 Fold
